Assay results reported in ChEMBL document CHEMBL1201862, “PubChem BioAssay data set” (2004).
Activity calls are given as the source filed them.

Tests used:
[1] = HEp-2 cell cytotoxicity, dose response, cytotoxicity control for RSV inhibitor project, HTS (AID 2410); format: functional; details: human respiratory syncytial virus
[2] = Luminescence Cell-Based Dose Confirmation HTS to Identify Activators of 5'UTR Stem-Loop Driven Alpha-Synuclein mRNA Translation in H4 Neuroglioblastoma Cells. [Related pubchem assays: 1829 (Project Summary), 1814 (Primary HTS)]; format: functional
[3] = Luminescence Cell-Based Dose Response HTS to Identify Activators of Luciferase Translation or Activity in H4 […] Cells. [Related pubchem assays: 1829 (Project Summary), 1814 (Primary HTS)]; format: functional
H4 = assay: Luminescence Cell-Based Dose Response HTS to Identify Activators of 5'UTR Stem-Loop Driven Prion Protein mRNA Translation in H4 Neuroglioblastoma Cells. [Related pubchem assays: 1829 (Project Summary), 1814 (Primary HTS)]; format: functional; details: Homo sapiens
[4] = target: T1, RNA-binding protein pos-1 (Caenorhabditis elegans, UniProt G5EF15); assay: inhibitors of POS-1/mex-3 RNA binding, dose response, biochemical, fluorescence polarization (AID 1964);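 further: purified POS-1 fused to maltose binding protein made in E. coli; potency of compounds blocking POS-1 binding to fluorescent RNA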
T1 sequence (G5EF15 whole entry): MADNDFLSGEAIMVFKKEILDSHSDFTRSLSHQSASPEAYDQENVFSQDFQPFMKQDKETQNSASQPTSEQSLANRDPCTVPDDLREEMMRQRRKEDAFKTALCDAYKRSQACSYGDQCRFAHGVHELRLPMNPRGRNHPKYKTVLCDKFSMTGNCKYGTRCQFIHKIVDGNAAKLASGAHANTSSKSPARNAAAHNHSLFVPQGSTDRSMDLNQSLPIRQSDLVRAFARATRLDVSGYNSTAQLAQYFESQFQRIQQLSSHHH

[5] = target: T2, Zinc finger protein mex-5 (Caenorhabditis elegans, UniProt Q9XUB2); assay: MEX-5/TCR-2 RNA interaction inhibitors, dose response, biochemical, C. elegans, fluorescence polarization (AID 1960)
T2 sequence (Q9XUB2 whole entry): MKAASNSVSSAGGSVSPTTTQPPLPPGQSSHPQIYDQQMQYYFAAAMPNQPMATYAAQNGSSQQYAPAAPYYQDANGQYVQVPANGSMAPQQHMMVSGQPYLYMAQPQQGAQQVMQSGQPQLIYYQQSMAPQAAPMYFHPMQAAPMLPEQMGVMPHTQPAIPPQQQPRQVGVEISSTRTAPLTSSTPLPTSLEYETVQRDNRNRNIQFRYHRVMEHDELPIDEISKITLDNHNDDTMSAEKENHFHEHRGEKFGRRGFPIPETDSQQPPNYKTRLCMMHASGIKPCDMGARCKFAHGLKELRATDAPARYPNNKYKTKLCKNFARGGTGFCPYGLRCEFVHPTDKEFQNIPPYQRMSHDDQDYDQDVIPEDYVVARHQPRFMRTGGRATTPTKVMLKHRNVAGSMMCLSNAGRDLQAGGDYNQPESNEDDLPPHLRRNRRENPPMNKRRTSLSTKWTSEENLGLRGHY

INS1 = assay: beta cell apoptosis inhibitors, cytokine rescue, dose response, luminescence, retest (AID 449756); format: functional, cell-based; details: Rattus norvegicus;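 further: cell death triggered by IL-1 beta plus TNF-alpha plus IFN-gamma mixture; protective hits raise ATP signal compared with cytokine alone wells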
[6] = target: T3, Replicative DNA helicase DnaB (Mycobacterium tuberculosis, UniProt P9WMR3); assay: DnaB intein splicing inhibitors, dose response, biochemical, cell-free fluorescence (AID 449749); format: functional
T3 sequence (P9WMR3 whole entry): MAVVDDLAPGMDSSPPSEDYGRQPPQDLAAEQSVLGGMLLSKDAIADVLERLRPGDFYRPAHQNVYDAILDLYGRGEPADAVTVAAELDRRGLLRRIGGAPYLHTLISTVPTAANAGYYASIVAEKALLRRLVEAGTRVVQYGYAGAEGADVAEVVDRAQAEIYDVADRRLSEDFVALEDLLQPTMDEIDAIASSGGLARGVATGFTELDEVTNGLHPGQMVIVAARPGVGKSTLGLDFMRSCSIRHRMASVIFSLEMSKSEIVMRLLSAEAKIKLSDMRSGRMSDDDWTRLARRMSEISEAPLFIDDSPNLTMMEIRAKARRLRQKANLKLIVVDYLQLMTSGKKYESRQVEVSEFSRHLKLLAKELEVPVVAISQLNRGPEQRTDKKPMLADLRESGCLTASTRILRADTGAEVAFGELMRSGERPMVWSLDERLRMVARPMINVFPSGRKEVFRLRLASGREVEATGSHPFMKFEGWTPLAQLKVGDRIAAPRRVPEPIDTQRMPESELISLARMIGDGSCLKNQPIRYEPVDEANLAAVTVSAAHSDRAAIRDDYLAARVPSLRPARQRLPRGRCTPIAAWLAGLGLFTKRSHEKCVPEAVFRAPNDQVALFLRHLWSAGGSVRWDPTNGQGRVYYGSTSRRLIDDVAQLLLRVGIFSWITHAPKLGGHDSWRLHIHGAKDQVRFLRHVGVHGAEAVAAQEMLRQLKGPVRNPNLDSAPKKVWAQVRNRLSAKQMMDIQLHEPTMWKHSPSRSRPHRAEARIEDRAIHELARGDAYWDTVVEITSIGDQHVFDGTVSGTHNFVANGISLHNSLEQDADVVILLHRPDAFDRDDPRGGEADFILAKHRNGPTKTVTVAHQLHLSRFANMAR

Protein RecA = target: T4, Protein RecA (Mycobacterium tuberculosis, UniProt P9WHJ3); assay: Fluorescence Cell-Free Homogeneous Dose Retest to Identify Inhibitors of RecA-Intein Splicing Activity. [Related pubchem assays (depositor defined):AID2097, AID2223, AID489010, AID492950]; format: functional
T4 sequence (P9WHJ3 whole entry): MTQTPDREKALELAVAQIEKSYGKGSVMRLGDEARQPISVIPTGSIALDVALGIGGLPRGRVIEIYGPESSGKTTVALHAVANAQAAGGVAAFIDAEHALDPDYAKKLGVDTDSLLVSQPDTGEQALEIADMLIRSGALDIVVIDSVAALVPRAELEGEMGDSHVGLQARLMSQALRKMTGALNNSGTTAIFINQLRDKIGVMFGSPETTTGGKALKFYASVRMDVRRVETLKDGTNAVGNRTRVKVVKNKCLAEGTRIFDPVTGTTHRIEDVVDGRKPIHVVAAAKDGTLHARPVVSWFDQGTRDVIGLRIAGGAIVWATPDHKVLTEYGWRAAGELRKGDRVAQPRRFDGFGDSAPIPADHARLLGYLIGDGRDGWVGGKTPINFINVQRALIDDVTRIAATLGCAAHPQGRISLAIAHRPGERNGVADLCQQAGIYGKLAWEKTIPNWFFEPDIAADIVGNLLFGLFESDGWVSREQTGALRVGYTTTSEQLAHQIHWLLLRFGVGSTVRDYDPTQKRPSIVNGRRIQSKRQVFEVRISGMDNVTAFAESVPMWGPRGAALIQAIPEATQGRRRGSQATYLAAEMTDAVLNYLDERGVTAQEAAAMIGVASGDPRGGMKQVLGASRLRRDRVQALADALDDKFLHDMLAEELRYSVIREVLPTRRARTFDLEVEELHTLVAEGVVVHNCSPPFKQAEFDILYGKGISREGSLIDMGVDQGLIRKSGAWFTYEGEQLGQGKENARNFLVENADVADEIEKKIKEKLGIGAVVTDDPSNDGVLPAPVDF

[7] = inhibitors of intracellular T. cruzi replication, confirmation, NIH3T3 host cells, beta-gal luminescence (AID 2044); format: functional, cell-based;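 further: intracellular parasites grown in NIH/3T3 mouse fibroblasts as host cells; luminescent beta-galactosidase reporter signal from transgenic T. cruzi replicating inside host cells; inhibitors lower the luminescence signal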
[8] = cytotoxicity toward NIH3T3 fibroblasts, dose response, counter-screen, cell-based, ATP luminescence, mouse fibroblasts (AID 2010); format: functional;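 further: cells exposed to compound for about 90 hours before reading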
Cytochrome P450 2C19 = Cytochrome P450 2C19 (Homo sapiens, UniProt P33261); assay: Cytochrome panel assay with activity outcomes. Panel member name: p450-cyp2c19 Compounds with AC50 equal or less than 10 uM are considered active; format: functional; details: read-out: AC50
Cytochrome P450 2C19, sequence (P33261 whole entry): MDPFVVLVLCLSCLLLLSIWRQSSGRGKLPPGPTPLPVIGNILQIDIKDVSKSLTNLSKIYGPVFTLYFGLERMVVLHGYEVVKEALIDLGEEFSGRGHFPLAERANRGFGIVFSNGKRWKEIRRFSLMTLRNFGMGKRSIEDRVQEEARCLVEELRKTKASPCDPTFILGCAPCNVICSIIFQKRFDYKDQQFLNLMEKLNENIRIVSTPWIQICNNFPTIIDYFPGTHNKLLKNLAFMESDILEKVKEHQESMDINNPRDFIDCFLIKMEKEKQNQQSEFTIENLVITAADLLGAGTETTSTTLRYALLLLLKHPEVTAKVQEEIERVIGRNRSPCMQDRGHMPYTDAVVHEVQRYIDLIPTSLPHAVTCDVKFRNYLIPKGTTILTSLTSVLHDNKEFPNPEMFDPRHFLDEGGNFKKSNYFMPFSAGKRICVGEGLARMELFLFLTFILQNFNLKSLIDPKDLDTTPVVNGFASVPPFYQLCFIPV

Cytochrome P450 1A2 = target: T5, Cytochrome P450 1A2 (Homo sapiens, UniProt P05177);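 further: PubChem cytochrome P450 panel assay, CYP1A2 panel member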
T5 sequence (P05177 whole entry): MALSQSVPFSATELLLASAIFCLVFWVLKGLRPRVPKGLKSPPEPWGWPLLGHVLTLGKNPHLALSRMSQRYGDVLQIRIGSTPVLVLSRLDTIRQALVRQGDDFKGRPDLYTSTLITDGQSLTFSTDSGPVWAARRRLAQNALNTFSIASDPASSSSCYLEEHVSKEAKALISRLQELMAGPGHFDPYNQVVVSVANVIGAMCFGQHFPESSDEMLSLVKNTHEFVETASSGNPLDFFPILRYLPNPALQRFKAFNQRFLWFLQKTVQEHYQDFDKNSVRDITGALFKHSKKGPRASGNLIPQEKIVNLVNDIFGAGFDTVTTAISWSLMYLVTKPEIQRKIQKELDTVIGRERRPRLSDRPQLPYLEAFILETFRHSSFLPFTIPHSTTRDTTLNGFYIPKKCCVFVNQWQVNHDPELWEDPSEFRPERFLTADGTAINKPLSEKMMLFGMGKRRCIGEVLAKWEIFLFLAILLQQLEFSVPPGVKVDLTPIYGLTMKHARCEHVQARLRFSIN

Cytochrome P450 3A4 = Cytochrome P450 3A4 (Homo sapiens, UniProt P08684);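 further: CYP3A4 tested as one member of a cytochrome P450 panel screen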
Cytochrome P450 3A4, sequence (P08684 whole entry): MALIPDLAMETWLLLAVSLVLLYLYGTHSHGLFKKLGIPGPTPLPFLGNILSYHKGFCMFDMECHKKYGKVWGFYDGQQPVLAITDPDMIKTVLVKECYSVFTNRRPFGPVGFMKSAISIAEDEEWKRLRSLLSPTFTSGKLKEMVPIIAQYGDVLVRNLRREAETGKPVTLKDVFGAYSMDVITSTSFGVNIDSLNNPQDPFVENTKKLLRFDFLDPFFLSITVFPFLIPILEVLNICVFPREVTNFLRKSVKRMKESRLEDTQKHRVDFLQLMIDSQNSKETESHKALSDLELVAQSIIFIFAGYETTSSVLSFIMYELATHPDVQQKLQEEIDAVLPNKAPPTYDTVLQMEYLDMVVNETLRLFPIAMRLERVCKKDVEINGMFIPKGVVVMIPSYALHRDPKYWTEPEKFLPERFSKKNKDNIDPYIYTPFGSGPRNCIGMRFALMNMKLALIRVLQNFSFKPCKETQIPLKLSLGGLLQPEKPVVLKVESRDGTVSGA

Row | SMILES | EC50 [2] | EC50 [3] | EC50 (H4) | also measured
1 | CN1C/C(=C\c2ccc(N3CCOCC3)cc2)C(=O)/C(=C/c2ccc(N3CCOCC3)cc2)C1 | 23.7 µM (active) | 48.1 µM (active) | > 120 µM (not active) | CC50 [1]: 22.8 µM (active)
2 | COc1cccc(C2c3c(oc4ccccc4c3=O)C(=O)N2Cc2ccco2)c1 (centres undefined) | 1.7 µM (active) | 55.4 µM (active) | 68 µM (active) | EC50 [4]: 36.3 µM (active); EC50 [5]: 150 µM (active)
3 | C=CCn1cccc(C(=O)Nc2ccc(SC)cc2)c1=O | 0.229 µM (active) | 0.188 µM (active) | 9.44 µM (active) | 
4 | Cc1nc(C(=O)Nc2ccccc2)sc1C1(C)CC(c2cccnc2)=NO1 (centres undefined) | 10.1 µM (active) | 30.4 µM (active) | 11.9 µM (active) | 
5 | Nc1nn(-c2ccccc2)nc1C(=O)OCc1ccccc1 | > 120 µM (not active) | 13.7 µM (active) | 25.2 µM (active) | 
6 | c1ccc2c(-c3nc(-c4ccncc4)no3)cccc2c1 | 0.841 µM (active) | > 120 µM (not active) | 51.4 µM (active) | 
7 | CC(C)c1ccc(NC(S)=NN2CCOCC2)cc1 | 18.4 µM (active) | 17.4 µM (active) | 22.2 µM (active) | 
8 | COc1ccccc1N=C(S)NNC(=O)c1ccc(Cl)cc1Cl | 10.9 µM (active) | 31.8 µM (active) | 61.7 µM (active) | 
9 | N#Cc1ccc(-c2ccc(Cl)cc2)nc1SCC(=O)c1cccc(Cl)c1 | > 120 µM (not active) | > 120 µM (not active) | > 120 µM (not active) | AC50 (INS1): 3.9 µM (active)
10 | Cc1ccccc1OCc1nc(-c2ccc(NC(=O)c3cccs3)cc2)no1 | 23.8 µM (active) | 28.5 µM (active) | 1.46 µM (active) | 
11 | COc1ccc(CN(C(=O)CSc2nnc(-c3ccccc3C)o2)c2ccc(F)cc2)cc1 |  |  |  | CC50 [1]: 29.4 µM (active); AC50 [6]: 1.42 µM (active); EC50 (Protein RecA): 8.86 µM (active)
12 | CC(C)c1cc(C(N)=O)c(NC(=O)c2cccc(COc3ccc(Br)cc3)c2)s1 | 11.3 µM (active) | 41.9 µM (active) | 0.366 µM (active) | EC50 [4]: > 300 µM (not active); EC50 [5]: > 300 µM (not active); EC50 [7]: 1.87 µM (active); EC50 [8]: > 30 µM (not active)
13 | Cn1cc(/C=C(\NC(=O)c2ccccc2Cl)C(=O)NCCN2CCOCC2)c2ccccc21 | > 120 µM (not active) | > 120 µM (not active) | > 120 µM (not active) | 
14 | Cc1cccc(OCC2=NS(=O)(=O)c3ccccc3N2)c1 | > 120 µM (not active) | 9.74 µM (active) | > 120 µM (not active) | 
15 | CC(C)(C)c1ccc(OCc2ccc(C(=O)NCc3cccnc3)o2)cc1 | 6.24 µM (active) | 5.94 µM (active) | > 120 µM (not active) | 
16 | Cc1c(OCC(=O)NCc2cccnc2)ccc2c3c(c(=O)oc12)CCC3 | > 120 µM (not active) | > 120 µM (not active) | 15.4 µM (active) | 
17 | Cc1cc(CNC(=O)c2ccc3nc(Cc4ccccc4F)oc3c2)nn1C | 0.3 µM (active) | 58.7 µM (active) | 7.51 µM (active) | 
18 | CCOC(=O)c1c(C)[nH]c(/C=N/c2ccc(OC)cc2)c1O | 16.5 µM (active) | 46.9 µM (active) | 4.53 µM (active) | 
19 | C(=N\C(/N=C/c1ccco1)c1ccco1)/c1ccco1 | 28.9 µM (active) | > 120 µM (not active) | > 120 µM (not active) | 
20 | C/C(=N\n1nnnc1Nc1ccccc1)c1ccc(N)cc1 | > 120 µM (not active) | > 120 µM (not active) | > 120 µM (not active) | AC50 (Cytochrome P450 2C19): 3.55 µM (inconclusive); AC50 (Cytochrome P450 1A2): 12.6 µM (inconclusive); AC50 (Cytochrome P450 3A4): 22.4 µM (inconclusive)
21 | COc1ccc(S(=O)(=O)n2ccc(-c3ccc4c(c3)CCC(C)(C)O4)n2)cc1 | > 120 µM (not active) | 17.2 µM (active) | 43.4 µM (active) | 
